Measured values from the supplement of paper PMC7224384.

How the values were obtained:
MDA-MB-453 [1] = test: drug sensitivity score (DSS), single agent (DSS (weighted AUC score)); higher = more sensitive (stronger viability decrease); extreme values may be limits of the assay; details: BLU9931 0 nM; 72 h
In short: (§1)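 Compounds from the FIMM Oncology set were predispensed in singlicate at five 10-fold dilutions (10,000-fold range) on 384-well plates. Each well then received 2000 MDA-MB-453 cells in medium with or without an FGFR4 inhibitor (100 nM final) and was kept at 37 °C, 5% CO2. Cellular ATP was read with CellTiterGlo 2.0 after 72 h and normalised per plate to percent viability from control wells. The drug sensitivity score is a weighted area under a four-parameter logistic fit.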

MDA-MB-453 [2] = test: drug sensitivity score (DSS), in combination with BLU9931 (DSS (weighted AUC score)); higher = more sensitive (stronger viability decrease); extreme values may be limits of the assay; details: BLU9931 100 nM; 72 h
In short: as §1

SMILES	drug sensitivity score (MDA-MB-453 [1])	drug sensitivity score (MDA-MB-453 [2])
C=CC(=O)Nc1cccc(Nc2nc(Nc3ccc(N4CCN(C(C)=O)CC4)cc3OC)ncc2C(F)(F)F)c1 [Rociletinib]	7.8	7.9
O=C(CCCCCCNC(=O)c1cnc(N(c2ccccc2)c2ccccc2)nc1)NO [Rocilinostat]	9.2	9.8
C/C=C1\NC(=O)[C@H]2CSSCC/C=C/[C@H](CC(=O)N[C@H](C(C)C)C(=O)N2)OC(=O)[C@H](C(C)C)NC1=O [Romidepsin]	32	33.3
Cc1nc(C(=O)NCC(=O)O)c(O)c2ccc(Oc3ccccc3)cc12 [Roxadustat]	0	0
CN(C)C[C@@H]1CCn2cc(c3ccccc32)C2=C(C(=O)NC2=O)c2cn(c3ccccc23)CCO1 [Ruboxistaurin]	5.3	6.7
CNCc1ccc(-c2[nH]c3cc(F)cc4c3c2CCNC4=O)cc1 [Rucaparib]	0.6	0
N#CC[C@H](C1CCCC1)n1cc(-c2ncnc3[nH]ccc23)cn1 [Ruxolitinib]	1.2	0
CC(C)N(CCCNC(=O)Nc1ccc(C(C)(C)C)cc1)C[C@H]1O[C@@H](n2cc(Br)c3c(N)ncnc32)[C@H](O)[C@@H]1O [SGC0946]	0.9	0.1
COc1ccc(CCc2nc3cc(-c4c(C)noc4C)ccc3n2C[C@H](C)N2CCOCC2)cc1Cl [SGC-CBP30]	9	9.1
CN1CCC(CNc2ccc3ncc(-c4cccc(OC(F)(F)F)c4)n3n2)CC1 [SGI-1776]	6.6	5.8
CN(CC(=O)N(Cc1ccc(C2CCCCC2)cc1)c1ccc(C(=O)O)cc1)S(=O)(=O)c1c(F)c(F)c(F)c(F)c1F [SH-4-54]	5.4	7.4
CCc1c2c(nc3ccc(O)cc13)-c1cc3c(c(=O)n1C2)COC(=O)[C@]3(O)CC [SN-38]	28.8	26.2
CC(C)(C)c1cnc(CSc2cnc(NC(=O)C3CCNCC3)s2)o1 [SNS-032]	18.1	19.1
Cc1cc2c(C(=O)NC[C@H](C)c3ccccc3)c(O)c(O)cc2c(O)c1-c1c(C)cc2c(C(=O)NC[C@H](C)c3ccccc3)c(O)c(O)cc2c1O [Sabutoclax]	12.6	12.4
CC[C@@H](C(=O)[C@@H](C)[C@@H](O)[C@H](C)[C@@H]1O[C@@H]([C@@H](CC)C(=O)O)CC[C@@H]1C)[C@H]1O[C@]2(C=C[C@@H](O)[C@]3(CC[C@@](C)([C@H]4CC[C@](O)(CC)[C@H](C)O4)O3)O2)[C@H](C)C[C@@H]1C [Salinomycin]	6.8	3.2
CC(C)n1nc(-c2ccc3oc(N)nc3c2)c2c(N)ncnc21 [Sapanisertib]	17.1	17.9
CNC(=O)CN1CCC(Oc2cc3c(Nc4cccc(Cl)c4F)ncnc3cc2OC)CC1 [Sapitinib]	2.2	4.8
CN1CCN(CCOc2cc(OC3CCOCC3)c3c(Nc4c(Cl)ccc5c4OCO5)ncnc3c2)CC1 [Saracatinib]	1.5	3.6
CC1=C2C[C@H]3[C@@H](CC[C@@H]4C[C@H](NS(C)(=O)=O)CC[C@@]43C)[C@@H]2CC[C@@]2(C1)O[C@@H]1C[C@H](C)CN[C@H]1[C@H]2C [Saridegib]	0	0
CC[C@H](CO)Nc1nc(NCc2ccccc2)c2ncn(C(C)C)c2n1 [Seliciclib]	0	0.2
O=C(/C=C\n1cnc(-c2cc(C(F)(F)F)cc(C(F)(F)F)c2)n1)NNc1cnccn1 [Selinexor]	9.6	9.5
Cc1cc(F)c(C(=O)Nc2cccc(-c3nncn3C(C)C)n2)cc1-n1cnc(C2CC2)c1 [Selonsertib]	0	0
Cn1cnc2c(F)c(Nc3ccc(Br)cc3Cl)c(C(=O)NOCCO)cc21 [Selumetinib]	0.7	0.7
CN1CCN(C(=O)c2ccc3cc(CCNc4ncnc5ccc(C#N)cc45)ccc3c2)CC1 [Senexin B]	2.4	1.3
COCC[n+]1c2c(n(Cc3cnccn3)c1C)C(=O)c1ccccc1C2=O [Sepantronium bromide]	32.9	33.2
Nc1nc2cc(-c3ccc4ncc(C(=O)N5CCOCC5)n4c3)ccc2o1 [Serabelisib]	7.8	9.8
O=C(O)c1ccc2c(c1)nc(Nc1cccc(Cl)c1)c1ccncc12 [Silmitasertib]	8.1	7.6
